These results are taken from publication PMC6471618, “Comparison of the Sulfonamide Inhibition Profiles of the α-Carbonic Anhydrase Isoforms (SpiCA1, SpiCA2 and SpiCA3) Encoded by the Genome of the Scleractinian Coral Stylophora pistillata” (Marine Drugs, 2019).

“Also recorded” adds a separate entry of the source. Read-outs that look alike come from different tables or passages of the source.

Experiment [1] relates to coral calcification rates. Also noted: method as in PMID 27513959. The note with it: cited from earlier work.
A further experiment deals with SpiCA3 (Stylophora pistillata, UniProt A0A1B0Y357). In kind it is biochemical. The procedure: An Applied Photophysics stopped-flow instrument (Leatherhead, Surrey (UK)) has been used for assaying the CA catalyzed CO2 hydration activity. […] The un-catalyzed rates were determined in the same manner and subtracted from the total observed rates. […] The inhibition constants were obtained by non-linear least-squares methods using PRISM 3 and the Cheng-Prusoff equation, as reported earlier, and represent the mean from at least three different determinations. All CA isoforms were recombinant ones obtained in-house. All salts/small molecules were of the highest purity available, from Sigma-Aldrich (Milan, Italy).

The next experiment deals with SpiCA2. On the set-up: method as in References 12 and 45. The following applies: ref References 12 and 45, cited from earlier work; for SpiCA2 inhibition, in words: authors' grading of the KI values of Table 1; for Ki: coral recombinant isoform, stopped flow CO2 hydrase assay.
For a further experiment, the system named is hCA I. On the set-up: method as in References 12 and 45. The note with it: ref References 12 and 45, cited from earlier work; for hCA I inhibition, in words: authors' grading of the KI values of Table 1; for Ki: human recombinant isozyme, stopped flow CO2 hydrase assay.
The next experiment deals with SpiCA1. Also noted: method as in References 12 and 45. The note with it: ref References 12 and 45, cited from earlier work; for SpiCA1 inhibition, in words: authors' grading of the KI values of Table 1; for Ki: coral recombinant isoform, stopped flow CO2 hydrase assay.
The subject of a further experiment is hCA II. Also noted: method as in References 12 and 45. The note with it: cited from earlier work.
[2] abbreviates: authors' grading of the KI values of Table 1.
Where [3] appears, read: read-out: KI SpiCA3; recombinant coral isoform, stopped-flow CO2 hydration, 20 mM TRIS pH 8.3, 15 min preincubation; errors 5–10%, 3 assays.
[4] abbreviates: recombinant coral isoform, stopped-flow CO2 hydration, 20 mM TRIS pH 8.3, 15 min preincubation; errors 5–10%, 3 assays; read-out: KI SpiCA3.

Chain of SpiCA3 (A0A1B0Y357 entry or part of it): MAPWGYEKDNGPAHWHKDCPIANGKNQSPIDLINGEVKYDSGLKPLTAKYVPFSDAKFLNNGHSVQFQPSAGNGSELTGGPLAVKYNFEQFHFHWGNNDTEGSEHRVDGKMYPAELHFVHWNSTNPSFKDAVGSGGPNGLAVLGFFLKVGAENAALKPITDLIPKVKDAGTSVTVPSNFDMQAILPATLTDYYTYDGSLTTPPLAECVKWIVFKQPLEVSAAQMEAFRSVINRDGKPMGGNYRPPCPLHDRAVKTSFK

For the molecule `CC(=O)Nc1nnc(S(N)(=O)=O)s1` [AAZ, acetazolamide], the “inhibition of coral calcification rates” value in experiment [1] is listed as “up to 73%”.

For `CCN[C@H]1CN(CCCOC)S(=O)(=O)c2sc(S(N)(=O)=O)cc21` [BRZ, brinzolamide], on SpiCA3 (setting [2]), the “SpiCA3 inhibition, in words” value is “low potency inhibitors”. Moreover, the Ki (commonly a dissociation constant, usually derived from enzyme kinetics or from competition with a known ligand) at SpiCA3 (setting [3]) is 250 nM; at SpiCA2, 169 nM; at SpiCA1, 48 nM. For the same molecule, in the experiment with SpiCA2, the “SpiCA2 inhibition, in words” value is reported as “low potency inhibitors”. Also, the “hCA I inhibition, in words” value with hCA I is “didn’t affect the hCAI activity”. Further, in the experiment with SpiCA1, the “SpiCA1 inhibition, in words” value is “high potency inhibitors”. Besides, in the experiment on hCA II, the “hCA II inhibition, in words” value is listed as “high potency inhibitors”.

With `NS(=O)(=O)c1nnc(NS(=O)(=O)c2ccccc2)s1` [BZA, benzolamide], the Ki on SpiCA3 (setting [3]) was 394 nM; at SpiCA2, 214 nM; at SpiCA1, 20 nM.

As for `Cc1ccc(-c2cc(C(F)(F)F)nn2-c2ccc(S(N)(=O)=O)cc2)cc1` [CLX, celecoxib], the “SpiCA3 inhibition, in words” value on SpiCA3 (setting [2]) is listed as “worst inhibitors; also recorded: low potency inhibitors”. Also, in the experiment on SpiCA2, the “SpiCA2 inhibition, in words” value is listed as “low potency inhibitors” and the Ki is 690 nM. Also, the “hCA I inhibition, in words” value in the experiment with hCA I was “didn’t affect the hCAI activity”. Further, in the experiment with SpiCA1, the “SpiCA1 inhibition, in words” value is “high potency inhibitors” and the Ki is 34 nM.

In the case of `Nc1ccc(S(N)(=O)=O)cc1` [Compound 2], the “SpiCA3 inhibition, in words” value at SpiCA3 (setting [2]) was “worst inhibitors”. In addition, the inhibition constant (Ki) on SpiCA1 was 364 nM.

For the molecule `NS(=O)(=O)c1cccc(S(N)(=O)=O)c1` [Compound 3], the Ki at SpiCA3 (setting [4]) was 667 nM; on hCA I, 0.079 µM.

For `Cc1ccc(S(N)(=O)=O)cc1` [Compound 4], the inhibition constant Ki on SpiCA3 (setting [3]) was 694 nM; at SpiCA2, 516 nM; on hCA I it was 78.5 µM; at SpiCA1 it was 614 nM.

Take `NCc1ccc(S(N)(=O)=O)cc1` [Compound 5]: the “SpiCA3 inhibition, in words” value on SpiCA3 (setting [2]) is on record as “worst inhibitors”. For the same molecule, the Ki at SpiCA2 was 508 nM; at SpiCA1, 83 nM.

Consider `NCCc1ccc(S(N)(=O)=O)cc1` [Compound 6], for which, on SpiCA3 (setting [2]), the “SpiCA3 inhibition, in words” value is “worst inhibitors”. The results for the Ki on SpiCA2 and on SpiCA1 were 577 nM and 94 nM, respectively.

In the case of `Nc1ccc(S(N)(=O)=O)cc1F` [Compound 7], at SpiCA3 (setting [2]), the “SpiCA3 inhibition, in words” value is on record as “worst inhibitors”. At SpiCA1, the Ki is 75 nM.

Regarding `Nc1ccc(S(N)(=O)=O)cc1Cl` [Compound 8], the “SpiCA3 inhibition, in words” value on SpiCA3 (setting [2]) was “worst inhibitors”. Besides, the Ki was 1810 nM on SpiCA3 (setting [4]) and 88 nM on SpiCA1.

With `Nc1ccc(S(N)(=O)=O)cc1Br` [Compound 9], the results for the Ki at SpiCA3 (setting [4]), at SpiCA2 and on SpiCA1 were 918 nM, 540 nM and 104 nM, respectively.

In the case of `Nc1cc(C(F)(F)F)c(S(N)(=O)=O)cc1S(N)(=O)=O` [Compound 11], the Ki on SpiCA3 (setting [3]) is 856 nM; at SpiCA1 it was 367 nM.

Take `Nc1cc(Cl)c(S(N)(=O)=O)cc1S(N)(=O)=O` [Compound 12]: the Ki was 430 nM at SpiCA3 (setting [4]) and 295 nM at SpiCA1.

As for `Nc1nnc(S(N)(=O)=O)s1` [Compound 13], the inhibition constant Ki was 275 nM on SpiCA3 (setting [4]) and 105 nM on SpiCA1.

With `Cn1nc(S(N)(=O)=O)sc1=N` [Compound 14], the inhibition constant Ki at SpiCA3 (setting [4]) was 578 nM; at SpiCA1, 92 nM.

Regarding `NS(=O)(=O)c1ccc(O)cc1` [Compound 15], the Ki on SpiCA3 (setting [4]) was found to be 487 nM.

Take `NS(=O)(=O)c1ccc(CO)cc1` [Compound 16]: the inhibition constant (Ki) at SpiCA3 (setting [4]) was 199 nM.

On to `NS(=O)(=O)c1ccc(CCO)cc1` [Compound 17], for which, at SpiCA3 (setting [2]), the “SpiCA3 inhibition, in words” value is recorded as “well inhibited”. In addition, the Ki is 66 nM on SpiCA3 (setting [3]) and 770 nM on SpiCA1.

On to `NS(=O)(=O)c1ccc(C(=O)O)cc1` [Compound 18], for which the Ki at SpiCA3 (setting [4]) is 241 nM; at SpiCA1, 30 nM.

As for `Nc1nccc(Nc2ccc(S(N)(=O)=O)cc2)n1` [Compound 19], at SpiCA3 (setting [2]), the “SpiCA3 inhibition, in words” value is reported as “well inhibited”. Further, the values for the Ki at SpiCA3 (setting [3]) and at SpiCA1 were 83 nM and 25 nM, respectively.

For `Nc1ccc(S(=O)(=O)Nc2nnc(S(N)(=O)=O)s2)cc1` [Compound 20], at SpiCA3 (setting [2]), the “SpiCA3 inhibition, in words” value was “well inhibited”. In addition, the Ki at SpiCA3 (setting [3]) was 74 nM; on SpiCA1, 28 nM.

In the case of `NS(=O)(=O)c1ccc(CCNS(=O)(=O)c2ccc([N+](=O)[O-])cc2CO)cc1` [Compound 21], at SpiCA3 (setting [2]), the “SpiCA3 inhibition, in words” value is recorded as “well inhibited”. For the same molecule, the Ki at SpiCA3 (setting [4]) came to 53 nM.

On to `Nc1ccc(S(=O)(=O)Nc2ccc(S(N)(=O)=O)cc2)cc1` [Compound 22], for which, on SpiCA3 (setting [4]), the Ki was 568 nM.

For `Nc1ccc(S(=O)(=O)NCc2ccc(S(N)(=O)=O)cc2)cc1` [Compound 23], the “SpiCA3 inhibition, in words” value at SpiCA3 (setting [2]) is reported as “well inhibited”. Moreover, at SpiCA3 (setting [4]), the Ki was 62 nM.

With `Nc1ccc(S(=O)(=O)NCCc2ccc(S(N)(=O)=O)cc2)cc1` [Compound 24], the “SpiCA3 inhibition, in words” value on SpiCA3 (setting [2]) is recorded as “well inhibited”. Also, the Ki at SpiCA3 (setting [3]) turned out to be 46 nM.

In the case of `CCN[C@H]1C[C@H](C)S(=O)(=O)c2sc(S(N)(=O)=O)cc21` [DZA, Dorzolamide], the “SpiCA2 inhibition, in words” value with SpiCA2 was “low potency inhibitors”. Also, in the experiment on SpiCA1, the “SpiCA1 inhibition, in words” value is recorded as “high potency inhibitors”. Further, the “hCA II inhibition, in words” value in the experiment on hCA II is on record as “high potency inhibitors”.

On to `CCOc1ccc2nc(S(N)(=O)=O)sc2c1` [EZA, ethoxzolamide], for which the “inhibition of coral calcification rates” value in experiment [1] is “up to 73%”.

Consider `NS(=O)(=O)c1cc2c(cc1Cl)NCNS2(=O)=O` [HCT, hydrochlorothiazide], for which the Ki at SpiCA3 (setting [3]) worked out at 243 nM.

On to `NS(=O)(=O)c1ccc(S(=O)(=O)Nc2cccc3c(Cl)c[nH]c23)cc1` [IND, indisulam], for which the “SpiCA3 inhibition, in words” value on SpiCA3 (setting [2]) is “well inhibited”. Besides, the Ki at SpiCA3 (setting [4]) is 92 nM; at SpiCA2, 394 nM; at SpiCA1, 163 nM.

As to `CC(=O)/N=c1/sc(S(N)(=O)=O)nn1C` [MZA, methazolamide], the Ki at SpiCA3 (setting [4]) was 821 nM; at SpiCA1, 21 nM.

For `O=C1NS(=O)(=O)c2ccccc21` [SAC, Saccharin], at SpiCA3 (setting [2]), the “SpiCA3 inhibition, in words” value is listed as “worst inhibitors”. The Ki on SpiCA2 is 104 nM; at hCA I, 18.5 µM; on SpiCA1 it was 40 nM.

`CCN1CCCC1CNC(=O)c1cc(S(N)(=O)=O)ccc1OC` (centres unmarked) [SLP, Sulpiride]: the “SpiCA3 inhibition, in words” value on SpiCA3 (setting [2]) was “worst inhibitors”.

Consider `NS(=O)(=O)c1ccc(N2CCCCS2(=O)=O)cc1` [SLT, sulthiame], for which the Ki on SpiCA3 (setting [4]) worked out at 251 nM.

Regarding `CC1(C)O[C@@H]2[C@@H](CO[C@@]3(COS(N)(=O)=O)OC(C)(C)O[C@@H]23)O1` [TPM, topiramate], the “SpiCA3 inhibition, in words” value at SpiCA3 (setting [2]) was “worst inhibitors”. Moreover, the Ki at SpiCA2 is 367 nM; on SpiCA1 it was 29 nM.

For `Cc1onc(-c2ccccc2)c1-c1ccc(S(N)(=O)=O)cc1` [VLX, valdecoxib], the “SpiCA2 inhibition, in words” value in the experiment with SpiCA2 is reported as “ineffective”.

Regarding `NS(=O)(=O)Cc1noc2ccccc12` [ZNS, zonisamide], the “SpiCA3 inhibition, in words” value on SpiCA3 (setting [2]) is “worst inhibitors”. Besides, the Ki at SpiCA2 was 645 nM; on SpiCA1 it was 259 nM.
